# Test results taken from patent US5756505A, “N-acylpiperazine derivative, antibacterial drug and anti-ulcer drug” (Shiseido Co., Ltd., priority 1995, dated 1998).
# Experiments:
# Helicobacter pyroli = experiment: AHP: Antibacterial Activity Test Against Helicobacter pyroli; type: cell-based, Helicobacter pyroli NCTC 11637; conditions: for MIC: Helicobacter, NCTC11637, 168 h, H. pyroli NCTC 11637, agar dilution, 7 days, read-out: AHP: minimum inhibitory concentration (MIC)
# Experimental: AHP: Antibacterial […] Against Helicobacter pyroli i)Meaning The minimum inhibitory concentration (MIC) against Helicobacter pyroli (microaerophilic gram-negative bacterium which is supposed to deeply involve in pathogenesis, relapse, and recrudescence of ulcer, referred to as "HP" in the following) is measured so as to find out compounds which have antimicrobial activity against Helicobacter pyroli. ii)Method MICs were determined by the agar dilution method. […] Grown colonies were transfered to the same plate and cultured for 3 days under the same condition. […] A 1,000 μg/ml solution of the sample compound containing DMSO not more than 25% was […] diluted 2-fold in sterile purified water. 100 μl volume from each dilution was mixed thoroughly with 900 μl of brucella agar supplemented with 5% horse blood and solidified in a 24 well micro plate. 10 μl of the bacterial suspension (about 10^3 cfu) was inoculated on this plate and cultured for 7 days under the same condition as that of preculture.
# [1] = tested on: isolated gastric fundic gland; experiment: CAP: Acid Secretion Inhibition Test In Vitro ([14C]-aminopyrine uptake); type: cell-based, rabbit (male Japanese White); conditions: final concentration 10^-5 M, histamine 10^-5 M, rabbit gastric fundic gland; for inhibition at 10 µM: Oryctolagus cuniculus, read-out: CAP: acid secretion inhibitory rate
# Experimental: CAP: Acid Secretion Inhibition Test In Vitro
# The acid secretion inhibitory activity in a cell level is studied. It can also be used for studying the mechanism of the effect. […]
# ii-a) Preparation of isolated gastric fundus gland suspension
# First, an isolated gastric fundic gland sample was prepared. Namely, a male Japanese White rabbit (2.5 to 3 kg) was anesthetized to death with Nembutal™ and then the abdomen was incised. Immediately thereafter, the stomach was removed and, after its pyloric and cardiac antrum were severed, incised along its greater curvature into two sheets. The gastric contents adhering to the mucosal surface was washed out with ice-cooled PBS (-) and then carefully washed therein. The gastric wall was spread on a cork board with its mucosal surface facing up and the feed and mucus thereon were completely removed with sterile gauze. The mucosa was separated therefrom by a spatula and then collected in ice-cooled PBS (-). After being washed twice with PBS (-), the mucosa was minced into 2-3mm^3 pieces by scissors. These pieces were further washed twice with a nutrient solution. The nutrient solution comprises 132.4 mM of NaCl, 5.4 mM of KCl, 5 mM of Na2 HPO4 ·12H2 O, 1 mM of NaH2 PO4 ·2H2 O, 1.2 mM of MgSO4, 1 mM of CaCl2, 25 mM of HEPES, 2mg/ml of glucose, and 1 mg/ml of BSA. Into 70 ml of the nutrient solution containing 1 mg/ml of collagenase, minced mucosal pieces were dispersed and intensely stirred in a conical flask with a stirrer at 37° C. for 40 to 60 minutes. During this period, 100% O2 was sprayed on the nutrient solution surface and the pH was appropriately measured such that it was immediately adjusted to pH 7.4, when the value was therebelow, with a base. The nutrient solution was added to the reaction solution so as to attain the total amount of about 200 ml. After being filtered through a mesh, the suspension was divisionally introduced into 50 ml centrifuge tubes and left for 15 minutes such that gastric fundic gland was deposited. The supernatant was repeatedly removed by an aspirator, dispersed in the nutrient solution, and then left such that the gastric fundic gland was washed three times. At this time, without using a pipette, the suspension was alternately introduced into two centrifuge tubes so as to effect dispersion. The number of cells was counted under microscope and adjusted to 1.6×10^6 cells/ml. […]
# ii-b) [^14 C]-aminopyrine uptake test
# Then, [^14 C]-aminopyrine uptake test was performed. After an Eppendorf tube was weighed, 10 μl (final concentration: 10^-5 M) of histamine dissolved in the above-mentioned nutrient solution, 10 μl (final concentration: 10^-5 M) of the test compound dissolved in DMSO, and 10 μl (final concentration: 0.05 μCi/ml) of [^14 C]-aminopyrine diluted with the nutrient solution were introduced therein and then 970 μl of the isolated gastric fundic gland suspension prepared above were added thereto. Subsequently, this mixture was shaken at 37° C. for 40 minutes at 125 cycles/minute. After being centrifuged for 30 minutes 200 μl of its supernatant was collected into a mini-vial, while the rest was removed by an aspirator. The gland pellet was completely dried as the tube with its lid being opened was kept for one night in a drying oven at 80° C. and then the lid was closed and the weight was determined at room temperature. Then 100 μl of 1N KOH were added thereto and the tube with its lid being closed was treated at 60° C. for 1 to 2 hours so as to dissolve the pellet. Then, the contents thereof were transferred to a mini-vial. Into the mini-vial containing the supernatant or gland pellet, 4 ml of Atomlite™ were added and then the radioactivity was measured by a liquid scintillation counter. Here, after the radioactivity of the gland pellet was corrected by using a sample in which 20 mM of NaSCN were added so as to cancel the hydrogen ion concentration gradient, the integration ratio of aminopyrine specifically trapped by the gland pellet was calculated. […]
# stress ulcer formation = experiment: WIS: Restraint and Water Immersion Stress-Induced Ulcer Inhibition Test; type: in vivo, rat (male Crj:SD or Slc:SD); conditions: rat; for WIS: ulcer formation inhibitory rate: 100 mg/kg oral, 7 hours stress
# Experimental: WIS: Restraint and Water Immersion Stress-Induced Ulcer Inhibition Test
# The degree of inhibition of the stress ulcer formation is tested.
# Male Crj:SDor Slc:SD rats (6 to 7-week-old) were fasted overnight, but allowed free access to water. Each group has 5 to 8 of these rats. The sample compound was dissolved or suspended in an aqueous solution of 0.3% sodium carboxymethylcellulose or 0.05% Tween 80 and then was orally administered (100 mg/10 ml/kg). To a control group, the vehicle was administered. 10 minuts later, the rats were placed in a stress cage and immersed to the level of xipfoid process in a water bath (21° C.) for 7 hours. At the end of the stress, the rats were sacrificed by inhalation of ether or carbon dioxide. Then, the stomach of each was removed, inflated by injecting 10 ml of 5% formalin neutral buffer solution, and immersed in 1% formalin neutral buffer solution for 30 minutes or more to be fixed. The stomach was incised along the greater curvature and then the length of each erosion in the glandular portion was determined under dissecting microscope. The sum of the length of erosions per stomach was defined as ulcer index (UI).
# The effect obtained when 100 mg/kg of the sample compound had been administered was expressed as ulcer formation inhibitory rate (%) as follows:
# ulcer formation inhibitory rate (%)=[1-(UI in sample group/UI in control group)]×100
MIC (Helicobacter pyroli),SMILES,antibacterial activity against Helicobacter pyroli (in words) (Helicobacter pyroli),CAP: acid secretion inhibitory rate [1],WIS: ulcer formation inhibitory rate (stress ulcer formation),anti-ulcer effect (in words) (stress ulcer formation; in vivo),inhibition at 10 µM [1]
12.5 µg/mL,"CC(C)Cc1cc(C(=O)N2CCN(CC(C)C)CC2)ccc1OCc1ccc(F)cc1.Cl [Example 22, 1-[4-(4-fluorobenzyloxy)-3-isobutylbenzoyl]-4-isobutylpiperazine hydrochloride]",improved,98%,85%,improved,–
25 µg/mL,"C=C(C)Cc1cc(C(=O)N2CCN(CC(C)C)CC2)ccc1OCc1ccc(F)cc1.Cl [Example 4, 1-[4-(4-fluorobenzyloxy)-3-methallylbenzoyl]-4-isobutylpiperazine hydrochloride]",–,–,65%,–,94%
25 µg/mL,"COc1ccc(COc2ccc(C(=O)N3CCN(CC(C)C)CC3)cc2CC(C)C)cc1 [Example 14, 1-isobutyl-4-[3-isobutyl-4-(4-methoxybenzyloxy)benzoyl]piperazine]",–,–,76%,–,100%
6.25 µg/mL,"CC(C)Cc1cc(C(=O)N2CCN(CC(C)C)CC2)ccc1OCc1ccc(F)cc1F.Cl [Example 24, 1-[4-(2,4-difluorobenzyloxy)-3-isobutylbenzoyl]-4-isobutylpiperazine hydrochloride]",–,–,72%,–,99%
